Laboratory results as given in US20110009482A1, “METHODS OF TREATING COPD” (Schering Corporation, priority 2007, published 2011).

Assay: Pharmacokinetics after oral administration to a human
Conditions: in vivo
[1] = single-dose oral administration of 30 mg to a human

CC[C@@H](Nc1c(Nc2cccc(C(=O)N(C)C)c2O)c(=O)c1=O)c1ccc(C)o1 [formula (1.0A)]
Tmax (oral administration to a human, read-out: median Tmax): 0.5 to 2 h | AUC [1]: 484 to 489 ng·h/mL | Cmax [1]: 122 to 147 ng/mL
